Values after ≈ are worked out from the molar mass of the structure shown. Read-outs that look alike come from different tables or passages of the source.
Key:
Format in all cases: cell-based
[1] = system: Helminthosporium sesamum IAM 5012; assay: antimicrobial activity, MIC
[2] = system: Bacillus subtilis ATCC 6633; assay: antimicrobial activity, MIC
[3] = system: Trichophyton mentagrophytes QM 248; assay: antimicrobial activity, MIC
[4] = system: Streptococcus faecalis IFO 12964; assay: antimicrobial activity, MIC
[5] = system: Sarcina lutea ATCC 9341; assay: antimicrobial activity, MIC
[6] = system: Cladosporium fulvum IAM 5006; assay: antimicrobial activity, MIC
[7] = system: Candida albicans NHL 4019; assay: antimicrobial activity, MIC
[8] = system: Microsporum gypseum IFO 8231; assay: antimicrobial activity, MIC
[9] = system: Staphylococcus aureus Terajima; assay: antimicrobial activity, MIC
[10] = system: Candida albicans Yu-1200; assay: antimicrobial activity, MIC
[11] = system: Pyricularia oryzae IAM 5016; assay: microbe, parasite or virus in culture
[12] = system: Micrococcus lysodeixticus IFO 3333; assay: antimicrobial activity, MIC
[13] = system: Trichophyton rubrum NHL J; assay: antimicrobial activity, MIC; settings: Trichophyton rubrum NHL J
[14] = system: Saccharomyces ruxii 6507; assay: antimicrobial activity, MIC; settings: Saccharomyces ruxii 6507; read-out: MIC
[15] = system: Saccharomyces cerevisiae ATCC 9763; assay: antimicrobial activity, MIC
[16] = system: Aspergillus niger ATCC 9642; assay: antimicrobial activity, MIC
[17] = system: Debaryomyces kloeckeri IFO 0015; assay: antimicrobial activity, MIC
[18] = system: Epidermophyton floccosum IFO 9045; assay: antimicrobial activity, MIC
[19] = system: Gibberella fujikuroi IAM 8046; assay: antimicrobial activity, MIC
[20] = system: Aspergillus oryzae IMF 4014; assay: antimicrobial activity, MIC
[21] = system: Staphylococcus aureus FDA 209P; assay: antimicrobial activity, MIC
[22] = system: Staphylococcus epidermidis ATCC 12228; assay: antimicrobial activity, MIC
[23] = system: Penicillium chrysogenum ATCC 6010; assay: antimicrobial activity, MIC
[24] = system: Fusarium moniliforme IAM 5062; assay: antimicrobial activity, MIC
[25] = system: Trichophyton tonsurans IFO 5928; assay: antimicrobial activity, MIC
[26] = system: Staphylococcus aureus Smith; assay: antimicrobial activity, MIC
[27] = system: Microsporum audounii IFO 6074; assay: antimicrobial activity, MIC
[28] = system: Microsporum cookei IFO 8303; assay: antimicrobial activity, MIC
[29] = system: Trichophyton mentagrophytes IFO 5812; assay: antimicrobial activity, MIC
[30] = Helminthosporium, IAM5012, Helminthosporium sesamum IAM 5012, read-out: MIC
[31] = Trichophyton mentagrophytes, QM248, Trichophyton mentagrophytes QM 248, read-out: MIC
[32] = Enterococcus faecalis, IFO12964, Streptococcus faecalis IFO 12964, read-out: MIC
[33] = Fulvia fulva, IAM5006, Cladosporium fulvum IAM 5006, read-out: MIC
[34] = Candida albicans, NHL4019, Candida albicans NHL 4019, read-out: MIC
[35] = Nannizzia gypsea, IFO8231, Microsporum gypseum IFO 8231, read-out: MIC
[36] = Staphylococcus aureus, read-out: MIC
[37] = Pyricularia oryzae, IAM5016, Pyricularia oryzae IAM 5016
[38] = Trichophyton rubrum, read-out: MIC
[39] = Saccharomyces cerevisiae, ATCC9763, Saccharomyces cerevisiae ATCC 9763, read-out: MIC
[40] = Epidermophyton floccosum, IFO9045, Epidermophyton floccosum IFO 9045, read-out: MIC
[41] = Staphylococcus aureus, FDA209P, read-out: MIC
[42] = Trichophyton tonsurans, IFO5928, Trichophyton tonsurans IFO 5928, read-out: MIC
[43] = Microsporum, IFO6074, Microsporum audounii IFO 6074, read-out: MIC
[44] = Trichophyton mentagrophytes, IFO5812, Trichophyton mentagrophytes IFO 5812, read-out: MIC
[45] = Micrococcus lysodeixticus IFO 3333
[46] = Staphylococcus epidermidis ATCC 12228
[47] = Penicillium chrysogenum ATCC 6010

CCCCCCOc1ccccc1C(=CCl)n1ccnc1 (single isomer, unassigned) [Compound 83]
MIC [1, 30]: 6.25 µg/mL (≈ 20.5 µM) | MIC ([2]; Bacillus subtilis, ATCC6633, Bacillus subtilis ATCC 6633, read-out: MIC): 6.25 µg/mL (≈ 20.5 µM) | MIC [3, 31]: < 0.2 µg/mL | MIC [4, 32]: 12.5 µg/mL (≈ 41 µM) | MIC ([5]; Micrococcus luteus, ATCC9341, Sarcina lutea ATCC 9341, read-out: MIC): 3.12 µg/mL (≈ 10.2 µM) | MIC [6, 33]: 12.5 µg/mL (≈ 41 µM) | MIC [7, 34]: 50 µg/mL (≈ 164 µM) | MIC [8, 35]: 1.56 µg/mL (≈ 5.12 µM) | MIC [9, 36]: 6.25 µg/mL (≈ 20.5 µM) | MIC ([10]; YU1200, read-out: MIC): 12.5 µg/mL (≈ 41 µM) | MIC [11, 37]: < 0.2 µg/mL | MIC ([12]; Micrococcus, IFO3333, Micrococcus lysodeixticus IFO 3333, read-out: MIC): 1.56 µg/mL (≈ 5.12 µM) | MIC [13, 38]: < 0.2 µg/mL | MIC [14]: < 0.2 µg/mL | MIC [15, 39]: 25 µg/mL (≈ 82 µM) | MIC ([16]; Aspergillus niger, ATCC9642, Aspergillus niger ATCC 9642, read-out: MIC): 12.5 µg/mL (≈ 41 µM) | MIC ([17]; IFO0015, read-out: MIC): 6.25 µg/mL (≈ 20.5 µM) | MIC [18, 40]: 6.25 µg/mL (≈ 20.5 µM) | MIC ([19]; Fusarium fujikuroi, IAM8046, Gibberella fujikuroi IAM 8046, read-out: MIC): 25 µg/mL (≈ 82 µM) | MIC ([20]; Aspergillus oryzae, IMF4014, Aspergillus oryzae IMF 4014, read-out: MIC): 12.5 µg/mL (≈ 41 µM) | MIC [21, 41]: 12.5 µg/mL (≈ 41 µM) | MIC ([22]; Staphylococcus epidermidis, ATCC12228, Staphylococcus epidermidis ATCC 12228, read-out: MIC): 6.25 µg/mL (≈ 20.5 µM) | MIC ([23]; Penicillium chrysogenum, ATCC6010, Penicillium chrysogenum ATCC 6010, read-out: MIC): 25 µg/mL (≈ 82 µM) | MIC ([24]; Fusarium verticillioides, IAM5062, Fusarium moniliforme IAM 5062, read-out: MIC): 25 µg/mL (≈ 82 µM) | MIC [25, 42]: < 0.2 µg/mL | MIC [26, 36]: 12.5 µg/mL (≈ 41 µM) | MIC [27, 43]: < 0.2 µg/mL | MIC ([28]; Paraphyton cookei, IFO8303, Microsporum cookei IFO 8303, read-out: MIC): 6.25 µg/mL (≈ 20.5 µM) | MIC [29, 44]: < 0.2 µg/mL

CCCOc1ccccc1C(=CSc1ccccc1)n1ccnc1 (single isomer, unassigned) [Compound 65]
MIC ([1]; Helminthosporium sesamum IAM 5012): 100 µg/mL (≈ 297 µM) | MIC ([2]; Bacillus subtilis ATCC 6633): 3.12 µg/mL (≈ 9.27 µM) | MIC ([3]; Trichophyton mentagrophytes QM 248): 12.5 µg/mL (≈ 37.2 µM) | MIC ([4]; Streptococcus faecalis IFO 12964): 12.5 µg/mL (≈ 37.2 µM) | MIC ([5]; Sarcina lutea ATCC 9341): 3.12 µg/mL (≈ 9.27 µM) | MIC ([6]; Cladosporium fulvum IAM 5006): > 100 µg/mL | MIC ([7]; Candida albicans NHL 4019): > 100 µg/mL | MIC ([8]; Microsporum gypseum IFO 8231): 12.5 µg/mL (≈ 37.2 µM) | MIC [9]: 6.25 µg/mL (≈ 18.6 µM) | MIC [10]: > 100 µg/mL | MIC ([11]; Pyricularia oryzae IAM 5016): 1.56 µg/mL (≈ 4.64 µM) | MIC [12, 45]: 1.56 µg/mL (≈ 4.64 µM) | MIC [13]: 3.12 µg/mL (≈ 9.27 µM) | MIC [14]: 6.25 µg/mL (≈ 18.6 µM) | MIC ([15]; Saccharomyces cerevisiae ATCC 9763): 25 µg/mL (≈ 74.3 µM) | MIC ([16]; Aspergillus niger ATCC 9642): > 100 µg/mL | MIC [17]: > 100 µg/mL | MIC ([18]; Epidermophyton floccosum IFO 9045): 100 µg/mL (≈ 297 µM) | MIC ([19]; Gibberella fujikuroi IAM 8046): > 100 µg/mL | MIC ([20]; Aspergillus oryzae IMF 4014): > 100 µg/mL | MIC [21]: 12.5 µg/mL (≈ 37.2 µM) | MIC [22, 46]: 6.25 µg/mL (≈ 18.6 µM) | MIC [23, 47]: > 100 µg/mL | MIC ([24]; Fusarium moniliforme IAM 5062): > 100 µg/mL | MIC ([25]; Trichophyton tonsurans IFO 5928): 12.5 µg/mL (≈ 37.2 µM) | MIC [26]: 6.25 µg/mL (≈ 18.6 µM) | MIC ([27]; Microsporum audounii IFO 6074): 6.25 µg/mL (≈ 18.6 µM) | MIC ([28]; Microsporum cookei IFO 8303): 100 µg/mL (≈ 297 µM) | MIC ([29]; Trichophyton mentagrophytes IFO 5812): 3.12 µg/mL (≈ 9.27 µM)

CCCOc1ccccc1C(=CSCc1ccccc1)n1ccnc1 (single isomer, unassigned) [Compound 3, 1-(2-n-propyloxyphenyl)-1-imidazolyl-2-benzylthioethylene]
MIC [1, 30]: < 0.2 µg/mL | MIC ([2]; Bacillus subtilis ATCC 6633): 1.56 µg/mL (≈ 4.45 µM) | MIC [3, 31]: < 0.2 µg/mL | MIC [4, 32]: 6.25 µg/mL (≈ 17.8 µM) | MIC ([5]; Sarcina lutea ATCC 9341): 1.56 µg/mL (≈ 4.45 µM) | MIC [6, 33]: 12.5 µg/mL (≈ 35.7 µM) | MIC [7, 34]: 50 µg/mL (≈ 143 µM) | MIC [8, 35]: < 0.2 µg/mL | MIC [9, 36]: 6.25 µg/mL (≈ 17.8 µM) | MIC ([10]; YU1200, read-out: MIC): > 100 µg/mL | MIC [11, 37]: < 0.2 µg/mL | MIC [12, 45]: 0.78 µg/mL (≈ 2.23 µM) | MIC [13, 38]: < 0.2 µg/mL | MIC [14]: < 0.2 µg/mL | MIC [15, 39]: < 0.2 µg/mL | MIC ([16]; Aspergillus niger ATCC 9642): 0.39 µg/mL (≈ 1.11 µM) | MIC ([17]; IFO0015, read-out: MIC): 6.25 µg/mL (≈ 17.8 µM) | MIC [18, 40]: 3.12 µg/mL (≈ 8.9 µM) | MIC ([19]; Gibberella fujikuroi IAM 8046): 25 µg/mL (≈ 71.3 µM) | MIC ([20]; Aspergillus oryzae IMF 4014): 6.25 µg/mL (≈ 17.8 µM) | MIC [21, 41]: 12.5 µg/mL (≈ 35.7 µM) | MIC [22, 46]: 3.12 µg/mL (≈ 8.9 µM) | MIC [23, 47]: 50 µg/mL (≈ 143 µM) | MIC ([24]; Fusarium moniliforme IAM 5062): > 100 µg/mL | MIC [25, 42]: < 0.2 µg/mL | MIC [26, 36]: 6.25 µg/mL (≈ 17.8 µM) | MIC [27, 43]: < 0.2 µg/mL | MIC ([28]; Microsporum cookei IFO 8303): 6.25 µg/mL (≈ 17.8 µM) | MIC [29, 44]: < 0.2 µg/mL

Reference: patent publication US4740601A, “Imidazole derivatives having antimicrobial activities” (SS Pharmaceutical Co., Ltd., priority 1985, dated 1988)
